# In PubChem BioAssay (NCI):
#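 96-well plates; 48 h exposure; 5 concentrations. Endpoints by linear interpolation between flanking doses. Not reached: highest tested concentration assigned. Definition used: TGI = concentration required for complete inhibition of growth.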
# Assays:
# Test in all cases: NCI anticancer screen, dose series, 48 h
# [1] = test system: 786-0 renal
# [2] = test system: A498 renal
# [3] = test system: A549 NSCLC
# [4] = test system: ACHN renal
# [5] = test system: CCRF-CEM leukemia
# [6] = test system: COLO 205 colon
# [7] = test system: DLD-1 colon
# [8] = test system: DMS 114 small cell lung
# [9] = test system: DMS 273 small cell lung
# [10] = test system: EKVX NSCLC
# [11] = test system: HCC-2998 colon
# [12] = test system: HCT-116 colon
# [13] = test system: HCT-15 colon
# [14] = test system: HL-60(TB) leukemia
# [15] = test system: HOP-62 NSCLC
# [16] = test system: HOP-92 NSCLC
# [17] = test system: HT29 colon
# [18] = test system: IGROV1 ovarian
# [19] = test system: K-562 leukemia
# [20] = test system: KM12 colon
# [21] = test system: LOX IMVI melanoma
# [22] = test system: LXFL 529 NSCLC
# [23] = test system: M14 melanoma
# [24] = test system: M19-MEL melanoma
# [25] = test system: MALME-3M melanoma
# [26] = test system: MOLT-4 leukemia
# [27] = test system: NCI-H226 lung
# [28] = test system: NCI-H23 lung
# [29] = test system: NCI-H460 lung
# [30] = test system: NCI-H522 lung
# [31] = test system: OVCAR-3 ovarian
# [32] = test system: OVCAR-4 ovarian
# [33] = test system: OVCAR-5 ovarian
# [34] = test system: OVCAR-8 ovarian
# [35] = test system: RPMI-8226 leukemia
# [36] = test system: RXF 393 renal
# [37] = test system: RXF-631 renal
# [38] = test system: SF-268 CNS
# [39] = test system: SF-295 CNS
# [40] = test system: SF-539 CNS
# [41] = test system: SK-MEL-2 melanoma
# [42] = test system: SK-MEL-28 melanoma
# [43] = test system: SK-MEL-5 melanoma
# [44] = test system: SK-OV-3 ovarian
# [45] = test system: SN12C renal
# [46] = test system: SNB-19 CNS
# [47] = test system: SNB-75 CNS
# [48] = test system: SNB-78 CNS
# [49] = test system: SR leukemia
# [50] = test system: SW-620 colon
# [51] = test system: TK-10 renal
# [52] = test system: U251 CNS
# [53] = test system: UACC-257 melanoma
# [54] = test system: UACC-62 melanoma
# [55] = test system: UO-31 renal
# [56] = test system: XF 498 CNS
# [57] = test system: CAKI-1 renal
# [58] = test system: HOP-18 NSCLC
# [59] = test system: KM20L2 colon
structure (smiles),measurement,setting,value
COc1ccc(O)c2c(=O)ccccc12,TGI,[1],> 100 µM
same,TGI,[2],> 100 µM
same,TGI,[3],> 100 µM
same,TGI,[4],> 100 µM
same,TGI,[5],> 100 µM
same,TGI,[6],> 100 µM
same,TGI,[7],> 100 µM
same,TGI,[8],> 100 µM
same,TGI,[9],> 100 µM
same,TGI,[10],> 100 µM
same,TGI,[11],> 100 µM
same,TGI,[12],> 100 µM
same,TGI,[13],> 100 µM
same,TGI,[14],> 100 µM
same,TGI,[15],> 100 µM
same,TGI,[16],> 100 µM
same,TGI,[17],> 100 µM
same,TGI,[18],> 100 µM
same,TGI,[19],> 100 µM
same,TGI,[20],> 100 µM
same,TGI,[21],> 100 µM
same,TGI,[22],> 100 µM
same,TGI,[23],> 100 µM
same,TGI,[24],> 100 µM
same,TGI,[25],> 100 µM
same,TGI,[26],> 100 µM
same,TGI,[27],> 100 µM
same,TGI,[28],> 100 µM
same,TGI,[29],> 100 µM
same,TGI,[30],91.7 µM
same,TGI,[31],> 100 µM
same,TGI,[32],> 100 µM
same,TGI,[33],> 100 µM
same,TGI,[34],> 100 µM
same,TGI,[35],> 100 µM
same,TGI,[36],> 100 µM
same,TGI,[37],> 100 µM
same,TGI,[38],> 100 µM
same,TGI,[39],> 100 µM
same,TGI,[40],> 100 µM
same,TGI,[41],> 100 µM
same,TGI,[42],> 100 µM
same,TGI,[43],> 100 µM
same,TGI,[44],> 100 µM
same,TGI,[45],> 100 µM
same,TGI,[46],> 100 µM
same,TGI,[47],> 100 µM
same,TGI,[48],> 100 µM
same,TGI,[49],> 100 µM
same,TGI,[50],> 100 µM
same,TGI,[51],60 µM
same,TGI,[52],> 100 µM
same,TGI,[53],> 100 µM
same,TGI,[54],> 100 µM
same,TGI,[55],> 100 µM
same,TGI,[56],> 100 µM
CCOC(=O)/C=C(\C)c1ccc(Cl)cc1,TGI,[2],> 100 µM
same,TGI,[3],> 100 µM
same,TGI,[4],> 100 µM
same,TGI,[57],> 100 µM
same,TGI,[5],> 100 µM
same,TGI,[6],> 100 µM
same,TGI,[7],> 100 µM
same,TGI,[8],> 100 µM
same,TGI,[9],> 100 µM
same,TGI,[10],> 100 µM
same,TGI,[11],> 100 µM
same,TGI,[12],> 100 µM
same,TGI,[13],> 100 µM
same,TGI,[14],> 100 µM
same,TGI,[58],> 100 µM
same,TGI,[16],> 100 µM
same,TGI,[17],> 100 µM
same,TGI,[18],> 100 µM
same,TGI,[19],> 100 µM
same,TGI,[20],> 100 µM
same,TGI,[59],> 100 µM
same,TGI,[21],> 100 µM
same,TGI,[22],> 100 µM
same,TGI,[23],> 100 µM
same,TGI,[25],> 100 µM
same,TGI,[26],> 100 µM
same,TGI,[27],98.4 µM
same,TGI,[28],> 100 µM
same,TGI,[29],> 100 µM
same,TGI,[32],> 100 µM
same,TGI,[33],> 100 µM
same,TGI,[34],> 100 µM
same,TGI,[35],> 100 µM
same,TGI,[36],> 100 µM
same,TGI,[37],> 100 µM
same,TGI,[38],> 100 µM
same,TGI,[39],> 100 µM
same,TGI,[40],> 100 µM
same,TGI,[41],> 100 µM
same,TGI,[42],> 100 µM
same,TGI,[45],> 100 µM
same,TGI,[46],> 100 µM
same,TGI,[47],> 100 µM
same,TGI,[48],> 100 µM
same,TGI,[49],> 100 µM
same,TGI,[50],> 100 µM
same,TGI,[51],> 100 µM
same,TGI,[52],> 100 µM
same,TGI,[53],> 100 µM
same,TGI,[55],> 100 µM
same,TGI,[56],> 100 µM
